# Test results: PMC8294059, “Identification and Immune Assessment of T Cell Epitopes in Five Plasmodium falciparum Blood Stage Antigens to Facilitate Vaccine Candidate Selection and Optimization” (Frontiers in Immunology, 2021)
# Where a SMILES comes first, the peptide text is derived from it.
# Target: HLA-B*0702 (Homo sapiens, UniProt P01889)
# Assay: In vitro class I HLA binding assay (fluorescence polarization competition)
# Conditions: allele B*0702; fluorescence polarization competition
# Method: A cell-free class I HLA binding assay that allows for in vitro quantification of peptide-HLA binding affinity in a competition format was used. In this assay, a fluorescently labeled, high binding, control peptide is loaded onto 384-well ½-area plates along with unlabeled experimental peptides. To remove endogenous peptides and render the HLA A and B molecules receptive to binding, HLA is heated at 53°C for 15 minutes and immediately added to the assay. The mixture is then allowed to stand for three days. […] Binding of experimental peptides is expressed as the percent inhibition of the labeled control peptide (experimental fluorescence / control fluorescence, multiplied by 100). The percent inhibition values for each experimental peptide (across a range of molar concentrations) are used to calculate the concentration which inhibits 50% of the labeled control peptide’s specific binding. This value is referred to as the peptide’s IC50.
row,Molecule,"IC50 (nM), in vitro HLA binding affinity"
1,LPSAKNNCEY [RIPR_0313],Non-binder
2,MDMKNYGTNL [RH5_330],Non-binder
3,MIRIKKKLIL [RH5_001],Non-binder
4,MNRTFKKMM [RH5_296],Non-binder

# Same assay, conditions: allele B*0702; fluorescence polarization competition; read-out: IC50 (nM), in vitro HLA binding affinity
row,Molecule,IC50 [nM]
1,CC(C)C[C@H](NC(=O)[C@H](CC(N)=O)NC(=O)[C@H](CCCCN)NC(=O)[C@H](CCCNC(=N)N)NC(=O)[C@@H]1CCCN1C(=O)[C@@H](N)CS)C(=O)N[C@@H](CCC(N)=O)C(=O)N[C@@H](CC(N)=O)C(=O)N[C@@H](C)C(=O)O [AMA1_302] (H-CPRKNLQNA-OH),484
2,CC[C@H](C)[C@H](NC(=O)[C@@H]1CCCN1C(=O)[C@@H](N)Cc1c[nH]cn1)C(=O)N[C@@H](CCC(=O)O)C(=O)N[C@H](C(=O)N[C@@H](CCC(=O)O)C(=O)N[C@@H](CC(N)=O)C(=O)N[C@@H](CC(N)=O)C(=O)N[C@@H](Cc1ccccc1)C(=O)O)C(C)C [AMA1_433] (H-HPIEVENNF-OH),310000
3,CC(C)C[C@H](NC(=O)[C@@H](NC(=O)[C@@H]1CCCN1C(=O)[C@@H](NC(=O)[C@@H](NC(=O)[C@H](Cc1c[nH]cn1)NC(=O)[C@H](CO)NC(=O)[C@H](C)NC(=O)[C@@H](N)CCCNC(=N)N)[C@@H](C)O)[C@@H](C)O)C(C)C)C(=O)O [AMA1_608] (H-RASHTTPVL-OH),258
4,CC[C@H](C)[C@H](N)C(=O)N1CCC[C@H]1C(=O)N[C@@H](Cc1ccccc1)C(=O)N[C@@H](Cc1c[nH]cn1)C(=O)N[C@@H](CCCCN)C(=O)N[C@@H](CCCCN)C(=O)N[C@@H](Cc1ccccc1)C(=O)N[C@H](C(=O)N[C@@H](CO)C(=O)N[C@@H](Cc1ccccc1)C(=O)O)[C@@H](C)CC [CYRPA_003] (H-IPFHKKFISF-OH),21900
